Experimental findings from patent publication US10730882B2, “2-aminoquinazoline derivatives as P70S6 kinase inhibitors” (SENTINEL ONCOLOGY LIMITED, priority 2015, dated 2020) are described below.

Where two headings read alike, the source gives them in different places.

For series [1], the target named is p70S6K (h) (Homo sapiens (Human), UniProt P23443). Nature of the series: p70S6K (h) kinase assay (radiometric, [γ-33P-ATP]). The class given is biochemical. As to conditions: read-out: (a) p70S6K1 IC50. Here is the method:
(a) Determination of p70S6 Inhibitory Activity
The ability of compounds of the invention to inhibit P70S6 kinase may be determined using the protocol below.
20 mM MOPS, 1 mM EDTA, 0.01% Brij-35, 5% Glycerol, 0.1% b-mercaptoethanol, 1 mg/mL BSA
In a final reaction volume of 25 μL, p70S6K (h) (5-10 mU) is incubated with 8 mM MOPS pH 7.0, 0.2 mM EDTA, 100 μM KKRNRTLTV, 10 mM Mg acetate and [γ-33P-ATP](specific activity approx. 500 cpm/pmol, concentration as required). The reaction is initiated by the addition of the MgATP mix. After incubation for 40 minutes at room temperature, the reaction is stopped by the addition of 5 μL of a 3% phosphoric acid solution. 10 μL of the reaction mixture is then spotted onto a P30 filtermat and washed three times for 5 minutes in 75 mM phosphoric acid and once in methanol prior to drying and scintillation counting.

The test system of series [2] is FXS mice (Fmr1 KO). Description: audiogenic seizure assay (AGS), in vivo model of Fragile X Syndrome. From the text:
(d) Evaluation of Compounds in the Audiogenic Seizure Assay, an In Vivo Model of Fragile X Syndrome (FXS)
Seizures occur in conjunction with FXS and autism in up to one-quarter of children with these disorders (Berry-Kravis E (2002) Epilepsy in fragile X syndrome. Dev. Med. Child Neurol. 44(11):724-728). […] The audiogenic seizure assay (AGS) is a well-documented mouse model of FXS (Audiogenic seizures susceptibility in transgenic mice with fragile X syndrome, Epilepsia. 2000 January; 41(1):19-23). In such a model it is possible to dose compounds to observe effects on susceptibility of the mice to audiogenic seizures. The following AGS experiment was set up to test the efficacy of compounds of this application:
The following experiment design was used:
Strain of FXS mouse used: FVB background
Vehicle used: 10% DMSO/90% hydroxypropyl-β-cyclodextrin (20% w/v aqueous)
Animals were assessed in AGS following 7 consecutive days of dosing.
The experimental chamber consisted of a plastic cage of dimensions 25×25×47 cm in which a doorbell (Electrical bell Heath Zenith, model 172C-A) had been mounted on the cage roof.
Mice were taken from their housing room one by one and transferred into the experimental chamber and allowed to explore the novel environment (basal noise […]) for a period of 30 seconds after which point the bell was rung (124 dB) for a period of 60 seconds.
The resulting motor responses were classified using a scale modified from the one originally described by Jobe et al. (1973): no response (NR: pause or continuous exploration), wild running (WR), seizure (S) or respiratory arrest and/or death (RA). The motor response rate is defined as the percentage of animals per group responding to the stimulus.

The test system of series [3] is MDA-MB-231 cells. Description: in vivo model of triple negative breast cancer (TNBC): tumour initiation and metastasis. Details: species or system female athymic nude mice. An excerpt:
(c) Evaluation of Efficacy of Compounds in Counter-Acting Tumour Initiation and Metastasis in an In Vivo Model of Triple Negative Breast Cancer (TNBC)
It is known that S6K1 has a crucial role in the recurrence of TNBC cancers following surgery, mainly through the activity of S6K1 in promoting survival of cancer cells in the host via phosphorylation and activation of the anti-apoptotic protein Bcl2 and of Gli1 (Belletti 2014). In addition, S6K1 promotes metastasis of TNBC cells (Akar 2010, Hung 2014).
In order to test the efficacy of an inhibitor of S6K1 in an in vivo model of tumour initiation and metastasis, the following experiment was established:
A total of 22 female athymic nude mice (Hsd:Athymic Nude-Foxn1^nu) were purchased from Harlan (UK) and acclimatised for 7 days prior to study commencement. Animals were housed in IVC cages (5 per cage) with individual mice identified by ear punch. All animals were allowed free access to a standard certified commercial diet and sanitised water during the study. The holding room was maintained under standard conditions: 20-24° C., 40-70% humidity and a 12 h light/dark cycle.
On day −1, animals were randomly assigned to treatment groups as indicated in the table below, and drug treatment commenced. On day 0, MDA-MB-231 cells (1×10^6 in matrigel) were implanted into the second mammary fat pad.
The dosing route was PO and the formulation was as follows: 10% DMSO/90% hydroxypropyl-β-cyclodextrin (20% w/v aqueous).
During the experiment, the following outcome measures were assessed:
(1) Time to palpation of tumour (latency) (2) tumour volume (3) tumour and organ weights as a measure of metastasis (4) visual appearance of metastatic nodules in the lungs.
At necroscopy the lungs of the vehicle and treated animals were examined for presence of metastatic nodules: […]

A short description of series [4]: in vivo cassette mouse model: brain and plasma concentrations following oral dosing. As to conditions: male CD-1 mice, 2.5 mg/kg per compound; for Kp at 3 h: brain and plasma, read-out: (b) Brain:Plasma ratio at 3 hours. On the procedure:
(b) Evaluation of Brain and Plasma Concentrations in an In Vivo Cassette Mouse Model
The compounds of this invention were evaluated in an in vivo cassette mouse model to determine brain and plasma concentrations following oral dosing. This is an industry-standard and recognised means to assess brain penetration of small molecules (for recent literature article, refer to: in vitro permeability analysis, pharmacokinetic and brain distribution study in mice of imperatorin, isoimperatorin and cnidilin in Radix Angelicae Dahuricae, Fitoterapia, Volume 85, March 2013, Pages 144-153). It is also recognised that higher brain concentrations (and higher ratios of brain:plasma concentration) lead to greater exposure in the brain—this is clearly advantageous if the brain is the site of action.
For a single cassette study, male CD-1 mice were used (n=3 per timepoint, three timepoints: 1.0 hr, 3.0 hr and 8.0 hr).
5 compounds were dosed PO per cassette (dose level 2.5 mg/kg per compound, dose conc. 0.25 mg/ml, dose volume 10.0 ml/kg).
Formulation used to solubilize compounds: 10% DMSO/90% hydroxypropyl-β-cyclodextrin (20% w/v aqueous)
Sampling was terminal and plasma and brain matrices were generated. To prepare plasma samples, protein was precipitated using acetonitrile. To prepare brain samples, homogenisation and protein precipitation was performed with acetonitrile. Samples were analysed using HPLC-TOF MS using electrospray ionisation.
The brain and plasma concentrations and brain-plasma ratios observed for the compounds tested are set out in the table below.

Setting [5] is: FXS (Fmr1 KO) mice, n=10, 50 mg/kg QD x 7 PO, mono-HCl salt, bell 124 dB for 60 seconds.
Where [6] appears, read: FXS mice, FVB background, following 7 consecutive days of dosing.
Where [7] appears, read: mono-HCl salt, 100 mg/kg p.o. BID, 21 days, compared to control.
Where [8] appears, read: brain, read-out: (b) Brain conc. at 3 hours.
[9] abbreviates: plasma, read-out: (b) Plasma conc. at 3 hours.

Chain of p70S6K (h) (P23443 whole entry): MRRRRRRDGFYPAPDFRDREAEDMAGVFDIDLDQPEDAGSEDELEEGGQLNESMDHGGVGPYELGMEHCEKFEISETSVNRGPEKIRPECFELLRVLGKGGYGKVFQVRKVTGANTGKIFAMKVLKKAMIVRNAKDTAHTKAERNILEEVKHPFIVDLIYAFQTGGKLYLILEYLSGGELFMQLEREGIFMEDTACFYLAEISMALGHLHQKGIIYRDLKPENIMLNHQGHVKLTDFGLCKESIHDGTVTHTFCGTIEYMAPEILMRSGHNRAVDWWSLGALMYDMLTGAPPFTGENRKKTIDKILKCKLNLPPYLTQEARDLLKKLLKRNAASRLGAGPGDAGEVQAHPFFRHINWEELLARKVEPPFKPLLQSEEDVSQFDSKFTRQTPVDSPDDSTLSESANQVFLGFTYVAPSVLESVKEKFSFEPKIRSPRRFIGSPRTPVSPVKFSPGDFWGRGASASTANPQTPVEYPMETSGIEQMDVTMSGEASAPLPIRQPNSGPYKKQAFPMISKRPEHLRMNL

Regarding `C[C@@H](Nc1ncc2cc(-c3ncnc4[nH]ncc34)ccc2n1)c1ccccc1` [Example 1, ((R)-1-Phenyl-ethyl)-[6-(1H-pyrazolo[3,4-d]pyrimidin-4-yl)-quinazolin-2-yl]-amine], in series [1], the IC50 (usually the concentration needed to halve the response being measured) is 13 nM. Further, in series [2] (setting [5]), the “NR (no response: pause or continuous exploration), number of animals” value turned out to be 9; the “RA (respiratory arrest and/or death), number of animals” value came to 0; the “S (seizure), number of animals” value is given as 0; the “WR (wild running), number of animals” value came to 1. In series [2] (setting [6]), the “incidence of audiogenic seizures” value is listed as “reduced” and the “severity of response (audiogenic seizure)” value is recorded as “reduced”. Besides, the “Mean no. of lung nodules per animal” value in series [3] (100 mg/kg BID x 21, lungs examined at necroscopy, mono-HCl salt) is 0. The “metastatic burden in the lungs” value in series [3] (at necroscopy, spontaneous metastasis from a TNBC primary tumour) was “effective in reducing the metastatic burden in the lungs”. The tumour weight entry in series [3] (day 21, mono-HCl salt, 100 mg/kg p.o. BID, compared to vehicle) was “weighed significantly less”. In series [3] (day 21, mono-HCl salt, 100 mg/kg p.o. BID, compared to vehicle treated group), the weight of liver entry is reported as “reduction in weight of liver”. Further, in series [3] (setting [7]), the “rate of incidence of tumour” value is “decreases the rate of incidence”, the “time until appearance (palpation) of tumour” value is “delays time until appearance (palpation) of tumour” and the tumour volume result is given as “significant reduction in volume of tumours”. Also, the Kp at 3 h in series [4] worked out at 2.7. Further, the concentration at 3 h in series [4] (setting [8]) was found to be 1600 nM. Moreover, the concentration at 3 h in series [4] (setting [9]) worked out at 580 nM.

With `Fc1cccc(CNc2ncc3cc(-c4ncnc5[nH]ncc45)ccc3n2)c1` [Example 10, (3-Fluorobenzyl)-[6-(1H-pyrazolo[3,4-d]pyrimidin-4-yl)-quinazolin-2-yl]-amine], in series [1], the IC50 came out at 18 nM. In addition, the Kp at 3 h in series [4] came out at 1.7. Moreover, the values for the concentration at 3 h in series [4] (setting [8]) and in series [4] (setting [9]) were 840 nM and 500 nM, respectively.

In the case of `C[C@@H](Nc1ncc2cc(-c3ncnc4[nH]ncc34)ccc2n1)c1ccc(F)c(F)c1` [Example 19, [(R)-1-(3,4-Difluoro-phenyl)-ethyl]-[6-(1H-pyrazolo[3,4-d]pyrimidin-4-yl)-quinazolin-2-yl]-amine], the IC50 in series [1] was 10 nM. For the same compound, in series [4], the Kp at 3 h turned out to be 4. Besides, the concentration at 3 h in series [4] (setting [8]) was 2420 nM; in series [4] (setting [9]), 600 nM.

In the case of `C[C@@H](Nc1ncc2cc(-c3ncnc4[nH]ncc34)ccc2n1)c1ccccc1F` [Example 28, [(R)-1-(2-Fluoro-phenyl)-ethyl]-[6-(1H-pyrazolo[3,4-d]pyrimidin-4-yl)-quinazolin-2-yl]-amine], in series [1], the IC50 was determined as 15 nM. Moreover, the Kp at 3 h in series [4] worked out at 2.6. The concentration at 3 h worked out at 1070 nM in series [4] (setting [8]) and 420 nM in series [4] (setting [9]).
